Test results: US10913742B2, “Oxadiazolones as transient receptor potential channel inhibitors” (Genentech, Inc., priority 2017, dated 2021)
Like-named read-outs stand apart in the source and are kept apart here.

Tests used:
human TRPA1 = human TRPA1 (Homo sapiens (Human), UniProt O75762); experiment: hTRPA1 CHO Ca2+ FLIPR assay (block of cinnamaldehyde induced calcium influx); type: cell-based
Outline: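 CHO cells expressing TRPA1 loaded with calcium dye (1 h at 37° C, then 15 min at room temperature) in HBSS/20 mM HEPES pH 7.4/0.02% BSA. Compounds preincubated 20 min at room temperature before cinnamaldehyde addition, with FLIPR Ca2+ readout. IC50 from Hill fit, n fixed at 1.5.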

[1] = Rat liver microsome clearance (RLM-CLhep); type: in vitro ADME; settings: 0.5 mg/ml protein, 1 mM NADPH, 1 μM compound, 37° C.
Method: (§1) Certain pharmacokinetic attributes were evaluated for some compounds of the present disclosure. […] The compounds of the present disclosure were discovered to provide for an unexpected combination of high potency as measured by hTRPA1 IC50 and high stability as measured by RLM-CLhep, HLM-CLhep and Rat IV PK.
(§2) The reactions were incubated at 37° C. for 0, 20, 40 and 60 minutes and at each allotted time point an aliquot of the reaction mixture was added to ice-cold acetonitrile with internal standard. The samples were subsequently centrifuged at 3000×g for 10 minutes and supernatant was diluted in water before LC-MS/MS analysis.

[2] = Human liver microsome clearance (HLM-CLhep); type: in vitro ADME; settings: 0.5 mg/ml protein, 1 mM NADPH, 1 μM compound, 37° C.
Method: as §1, §2

[3] = Rat IV PK (hepatic clearance); type: in vivo; settings: rat IV dose of 1 mg/kg
Method: as §1

[4] = repeated from Table 1, read-out: hTRPA1 IC50
[5] = CHO cells expressing TRPA1, 75 uM cinnamaldehyde, Hill coefficient fixed to 1.5, read-out: hTRPA1 (hTRPA1 CHO Ca2+ MAX EVO (IC50))

Sequence of human TRPA1 (O75762 whole entry): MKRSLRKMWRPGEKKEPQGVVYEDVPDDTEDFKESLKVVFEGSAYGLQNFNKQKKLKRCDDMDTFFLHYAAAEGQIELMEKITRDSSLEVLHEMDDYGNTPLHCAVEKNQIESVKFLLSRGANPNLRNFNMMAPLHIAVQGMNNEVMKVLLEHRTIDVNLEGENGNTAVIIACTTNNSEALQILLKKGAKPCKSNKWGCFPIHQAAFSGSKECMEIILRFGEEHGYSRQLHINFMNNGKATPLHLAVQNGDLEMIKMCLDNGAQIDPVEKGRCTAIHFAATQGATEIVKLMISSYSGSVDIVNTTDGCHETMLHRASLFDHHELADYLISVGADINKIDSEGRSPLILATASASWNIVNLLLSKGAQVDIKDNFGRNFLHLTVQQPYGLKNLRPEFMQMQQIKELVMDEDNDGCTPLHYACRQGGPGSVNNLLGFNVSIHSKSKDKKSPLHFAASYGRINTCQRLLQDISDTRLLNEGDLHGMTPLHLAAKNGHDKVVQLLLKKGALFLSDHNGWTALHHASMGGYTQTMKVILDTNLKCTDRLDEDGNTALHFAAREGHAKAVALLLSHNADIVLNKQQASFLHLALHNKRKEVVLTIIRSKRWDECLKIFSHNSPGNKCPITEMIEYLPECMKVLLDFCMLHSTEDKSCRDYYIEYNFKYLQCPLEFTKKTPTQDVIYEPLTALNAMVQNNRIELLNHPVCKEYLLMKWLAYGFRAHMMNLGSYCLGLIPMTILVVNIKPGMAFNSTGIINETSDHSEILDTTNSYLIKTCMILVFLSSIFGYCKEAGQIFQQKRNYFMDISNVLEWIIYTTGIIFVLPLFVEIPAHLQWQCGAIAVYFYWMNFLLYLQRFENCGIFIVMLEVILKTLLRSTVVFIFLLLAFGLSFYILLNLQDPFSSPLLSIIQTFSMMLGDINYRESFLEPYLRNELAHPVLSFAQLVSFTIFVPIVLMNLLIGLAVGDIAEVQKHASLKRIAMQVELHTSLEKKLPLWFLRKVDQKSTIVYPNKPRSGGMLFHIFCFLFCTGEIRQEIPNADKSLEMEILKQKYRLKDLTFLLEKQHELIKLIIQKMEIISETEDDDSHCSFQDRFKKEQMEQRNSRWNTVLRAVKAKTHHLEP

Cn1cnc2ncn(Cc3nn(C[C@@H](F)c4ccc(Cl)cc4)c(=O)o3)c(=O)c21 [Example Compound 14, (S)-3-(2-(4-chlorophenyl)-2-fluoroethyl)-5-((7-methyl-6-oxo-6H-purin-1 (7H)-yl)methyl)-1,3,4-oxadiazol-2(3H)-one]
IC50 (human TRPA1; [4]): 34 nM
RLM-CLhep (rat liver microsome clearance) [1]: 28 mL/min/kg
HLM-CLhep (human liver microsome clearance) [2]: 6 mL/min/kg
Rat IV PK (hepatic clearance) [3]: 17 mL/min/kg

Cn1cnc2ncn(Cc3nn(CCc4ccc(Cl)cc4)c(=O)o3)c(=O)c21 [Example Compound 1, 3-[2-(4-chlorophenyl)ethyl]-5-[(7-methyl-6-oxo-purin-1-yl)methyl]-1,3,4-oxadiazol-2-one]
IC50 (human TRPA1; [4]): 95 nM
RLM-CLhep (rat liver microsome clearance) [1]: 34 mL/min/kg
HLM-CLhep (human liver microsome clearance) [2]: 11 mL/min/kg
Rat IV PK (hepatic clearance) [3]: 48 mL/min/kg

Cn1cnc2ncn(Cc3nn([C@H]4C[C@H](c5ccc(Cl)cc5)C4)c(=O)o3)c(=O)c21 [Example Compound 50, 3-[3-(4-chlorophenyl)cyclobutyl]-5-[(7-methyl-6-oxo-purin-1-yl)methyl]-1,3,4-oxadiazol-2-one]
RLM-CLhep (rat liver microsome clearance) [1]: 12 mL/min/kg
HLM-CLhep (human liver microsome clearance) [2]: 5 mL/min/kg
Rat IV PK (hepatic clearance) [3]: 10 mL/min/kg

Cn1cnc2ncn(Cc3nn(CCc4ccc(C5CC5)cc4)c(=O)o3)c(=O)c21 [compound 16, 3-(4-cyclopropylphenethyl)-5-((7-methyl-6-oxo-6H-purin-1(7H)-yl)methyl)-1,3,4-oxadiazol-2(3H)-one]
IC50 (human TRPA1; [5]): 356 nM

Cn1cnc2ncn(Cc3nn(CCc4ccc(Br)c(Cl)c4)c(=O)o3)c(=O)c21 [compound 25, 1-([4-[2-(4-bromo-3-chlorophenyl)ethyl]-5-oxo-4,5-dihydro-1,3,4-oxadiazol-2-yl]methyl)-7-methyl-6,7-dihydro-1H-purin-6-one]
IC50 (human TRPA1; [5]): 132 nM

Cn1cnc2ncn(Cc3nn([C@H]4C[C@H](Oc5cccc(F)c5)C4)c(=O)o3)c(=O)c21 [compound 63, trans-3-[3-(3-fluorophenoxy)cyclobutyl]-5-[(7-methyl-6-oxo-purin-1-yl)methyl]-1,3,4-oxadiazol-2-one]
IC50 (human TRPA1; [5]): 11.5 nM

O=c1c2cccnc2ncn1Cc1nn(C[C@H](F)c2ccc(OC(F)F)cc2)c(=O)o1 (racemic) [compound 81, 5-[(4-oxopyrido[2,3-d]pyrimidin-3-yl)methyl]-3-[rac-(2R)-2-[4-(difluoromethoxy)phenyl]-2-fluoro-ethyl]-1,3,4-oxadiazol-2-one]
IC50 (human TRPA1; [5]): 50 nM

Cc1ccnc2ncn(Cc3nn(CCCOc4cccc(Cl)c4)c(=O)o3)c(=O)c12 [compound 85, 3-(3-(3-chlorophenoxy)propyl)-5-((5-methyl-4-oxopyrido[2,3-d]pyrimidin-3(4H)-yl)methyl)-1,3,4-oxadiazol-2(3H)-one]
IC50 (human TRPA1; [5]): 6.34 nM

O=c1c2cccnc2ncn1Cc1nn([C@H]2C[C@](F)(c3ccc(Cl)cc3)C2)c(=O)o1 [compound 94, trans-3-[3-(4-chlorophenyl)-3-fluoro-cyclobutyl]-5-[(4-oxopyrido[2,3-d]pyrimidin-3-yl)methyl]-1,3,4-oxadiazol-2-one]
IC50 (human TRPA1; [5]): 16.8 nM

Cc1ccnc2ncn(Cc3nn(CC(F)c4ccc(Cl)cc4)c(=O)o3)c(=O)c12 (stereo in doubt) [compound 34, 5-[(5-methyl-4-oxo-pyrido[2,3-d]pyrimidin-3-yl)methyl]-3-[(2S)-2-(4-chlorophenyl)-2-fluoro-ethyl]-1,3,4-oxadiazol-2-one]
IC50 (human TRPA1; [5]): 5 nM

Cn1cnc2ncn(Cc3nn([C@@H]4C[C@@H](F)[C@@H](c5ccc(Cl)cc5)C4)c(=O)o3)c(=O)c21 (racemic) [compound 82, 5-[(7-methyl-6-oxo-purin-1-yl)methyl]-3-[rac-(1S,3R,4R)-3-(4-chlorophenyl)-4-fluoro-cyclopentyl]-1,3,4-oxadiazol-2-one]
IC50 (human TRPA1; [5]): 43.9 nM
